Data reported in patent publication US9587205B2, “Activation of peroxygen bleach” (Warwick International Group Limited, priority 2012, dated 2017).

Test: Peracid (peracetic acid) release rate, iodometric titration
Type: physicochemical
Conditions: for Peracid Release (% th. max): time 5 mins, 20° C., 75 rpm, actual PAR/theoretical PAR
Description: The invention is illustrated by determining the rate of peracid release as a proportion of the maximum achievable based on acetyl groups available for reaction with perhydroxyl ion.
In this specification the method used to measure peracid generation is an iodometric titration carried out as follows: 25 g of a mixture of 85% by weight IEC A*base detergent, 10% sodium percarbonate and 5% activator, accurately weighed, is added to it deionised water at 20° C. in a beaker stirred by overhead stirrer at 75 rpm at t=0. After predetermined times from 2 mins, a 50 ml sample of the solution is added to a mixture of 15 ml glacial acetic acid and 5 ml of a 10% solution of potassium iodide at 0° C. and titrated against 0.05M sodium thiosulphate using a suitable indicator for iodine as quickly as possible. The theoretical amount of peracid released (PAR) is calculated as follows:
[formula] for TriAED the moles of peracid released is 1, for TAED it is 2.
The actual amount of peracid released (actual PAR) is calculated from the titre of thiosulphate and its molarity, based on the correlation of 2 moles thiosulphate to 1 mole of peracid. The results reported are of actual PAR/theoretical PAR for each time point.
Testing of peracetic acid release rate is carried out according to the standard test method described above.

## CC(=O)N(CCN(C(C)=O)C(C)=O)C(C)=O [TAED, Tetra-acetylethylene diamine]
  Peracid Release (% th. max): 45 % th. max
Within two minutes of being added to water at 20° C.
  peracid release as a proportion of the maximum achievable: less than 70%

## CC(=O)NCCN(C(C)=O)C(C)=O [Tri AED, N,N,N′-triacetylethylene diamine]
  Peracid Release (% th. max): 92 % th. max
